Laboratory results reported in patent US20230399312A1, “SUBSTITUTED PYRIMIDINES AND METHODS OF USE” (THERAVANCE BIOPHARMA R&D IP, LLC, priority 2020, published 2023).

Legend:
[1] = molecular target: T1, recombinant human ALK5 (TGF-βR1) protein (Homo sapiens, UniProt P36897); experiment: Biochemical ALK5 (TGF-βR1) assay to measure pKi (LANCE Ultra ULight kinase assay); conditions: apparent pKi, converted from pIC50 by Cheng-Prusoff
T1 construct: purchased Life Technologies PR9075A
T1 sequence (P36897 34-503): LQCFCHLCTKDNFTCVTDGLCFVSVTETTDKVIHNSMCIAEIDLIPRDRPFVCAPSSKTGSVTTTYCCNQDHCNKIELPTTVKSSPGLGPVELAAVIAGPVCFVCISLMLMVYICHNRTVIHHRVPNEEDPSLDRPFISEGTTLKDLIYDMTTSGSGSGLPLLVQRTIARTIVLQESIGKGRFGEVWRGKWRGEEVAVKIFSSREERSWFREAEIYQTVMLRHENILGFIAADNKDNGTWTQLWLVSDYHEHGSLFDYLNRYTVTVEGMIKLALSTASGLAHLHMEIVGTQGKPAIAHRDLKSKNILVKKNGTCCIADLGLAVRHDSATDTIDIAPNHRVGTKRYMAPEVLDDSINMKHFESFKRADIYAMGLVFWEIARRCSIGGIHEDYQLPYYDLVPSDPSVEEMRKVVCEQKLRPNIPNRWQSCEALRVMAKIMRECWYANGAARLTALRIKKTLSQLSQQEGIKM
Summary of the method: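 Enzyme was preincubated with compound for 60 min at room temperature, then ATP (added from a 125 μM 5× stock with 2 mM DTT) started a 60 min reaction at 37 °C. EDTA plus Eu-anti-phospho-Topo2α (Thr1342) antibody stopped it; TR-FRET pIC50 values were converted to pKi by Cheng-Prusoff.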

[2] = test system: TGF-β-stimulated SMAD3 phosphorylation in BEAS-2B cells; experiment: Cellular ALK5 potency assay, inhibition of TGF-β stimulated pSMAD3 formation in BEAS-2B cells; assay type: cell-based; conditions: Homo sapiens, pSMAD3, TGF-β 10 ng/mL, read-out: BEAS2B pIC50 (converted)
Summary of the method: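 Cells were seeded overnight, rinsed into HEPES/BSA-supplemented HBSS, and dosed with serially diluted compound for 1 h at 37 °C, 5% CO2. TGF-β stimulation (10 ng/mL final) followed for 30 min, then lysis and AlphaLISA pSMAD3 measurement; potency reported as pIC50.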

## Cc1cccc(-c2nccc(Nc3ccnc(Nc4ccc(CN5CCNCC5(C)C)cc4)n3)n2)n1 [Compound 480, N2-[4-[(2,2-dimethylpiperazin-1-yl)methyl]phenyl]-N4-[2-(6-methyl-2-pyridyl)pyrimidin-4-yl]pyrimidine-2,4-diamine]
[1]
  Ki: 0.0398 to 0.316 nM
[2]
  IC50: 25.1 to 158 nM

## COC(=O)C1CN(Cc2ccc(Nc3nccc(Nc4ccnc(-c5cccc(C)n5)n4)n3)cc2)CCN1C(C)C (stereo not shown) [Compound 481, methyl 1-isopropyl-4-[[4-[[4-[[2-(6-methyl-2-pyridyl)pyrimidin-4-yl]amino]pyrimidin-2-yl]amino]phenyl]methyl] piperazine-2-carboxylate]
[1]
  Ki: 0.398 to 3.16 nM
[2]
  IC50: 25.1 to 158 nM

## Cc1cccc(-c2nc(C)cc(Nc3ccnc(Nc4ccc(N5CCNCC5)cc4)n3)n2)n1 [Compound 482, N4-[6-methyl-2-(6-methyl-2-pyridyl)pyrimidin-4-yl]-N2-(4-piperazin-1-ylphenyl)pyrimidine-2,4-diamine]
[1]
  Ki: 0.0398 to 0.316 nM
[2]
  IC50: 25.1 to 158 nM

## CNCCN1CCN(c2ccc(Nc3nccc(Nc4ccnc(-c5cccc(C)n5)n4)n3)cc2)CC1 [Compound 483, N2-[4-[4-[2-(methylamino)ethyl]piperazin-1-yl]phenyl]-N4-[2-(6-methyl-2-pyridyl)pyrimidin-4-yl]pyrimidine-2,4-diamine]
[1]
  Ki: 0.0398 to 0.316 nM
[2]
  IC50: 200 to 1260 nM

## Cc1cccc(-c2nccc(Nc3ccnc(Nc4ccc(CN5CCC(C(=O)O)CC5)cc4)n3)n2)n1 [Compound 484, 1-[[4-[[4-[[2-(6-methyl-2-pyridyl)pyrimidin-4-yl]amino]pyrimidin-2-yl]amino]phenyl]methyl] piperidine-4-carboxylic acid]
[1]
  Ki: 0.0398 to 0.316 nM
[2]
  IC50: 200 to 1260 nM

## Cc1cccc(-c2nccc(Nc3ccnc(Nc4ccc(Cc5ncco5)cc4)n3)n2)n1 [Compound 485, N4-[2-(6-methyl-2-pyridyl)pyrimidin-4-yl]-N2-[4-(oxazol-2-ylmethyl)phenyl]pyrimidine-2,4-diamine]
[1]
  Ki: 0.398 to 3.16 nM
[2]
  IC50: 25.1 to 158 nM

## Cc1cccc(-c2nccc(Nc3ccnc(Nc4ccc(CN5CCC[C@H](C(=O)O[C@@H]6CCN(C)C6)C5)cc4)n3)n2)n1 [Compound 486, [(3R)-1-methylpyrrolidin-3-yl] (3S)-1-[[4-[[4-[[2-(6-methyl-2-pyridyl)pyrimidin-4-yl]amino]pyrimidin-2-yl]amino]phenyl]methyl] piperidine-3-carboxylate]
[1]
  Ki: 0.0398 to 0.316 nM
[2]
  IC50: 25.1 to 158 nM

## Cc1cccc(-c2nccc(Nc3ccnc(Nc4ccc(Cl)c(CN5C6CCC5CNC6)c4)n3)n2)n1 [Compound 487, N2-[4-chloro-3-(3,8-diazabicyclo[3.2.1]octan-8-ylmethyl)phenyl]-N4-[2-(6-methyl-2-pyridyl)pyrimidin-4-yl]pyrimidine-2,4-diamine]
[1]
  Ki: 0.0398 to 0.316 nM
[2]
  IC50: 25.1 to 158 nM

## Cc1cccc(-c2nccc(Nc3ccnc(Nc4ccc(N5CCN[C@H](C(=O)O)C5)cc4)n3)n2)n1 [Compound 488, (2S)-4-[4-[[4-[[2-(6-methyl-2-pyridyl)pyrimidin-4-yl]amino]pyrimidin-2-yl]amino]phenyl]piperazine-2-carboxylic acid]
[1]
  Ki: 0.0398 to 0.316 nM
[2]
  IC50: 200 to 1260 nM

## Cc1cccc(-c2nccc(Nc3ccnc(Nc4ccc(CC5CCNC5)cc4)n3)n2)n1 (stereo not shown) [Compound 489, N4-(2-(6-methylpyridin-2-yl)pyrimidin-4-yl)-N2-(4-(pyrrolidin-3-ylmethyl)phenyl)pyrimidine-2,4-diamine]
[1]
  Ki: 0.0398 to 0.316 nM
[2]
  IC50: 25.1 to 158 nM

## Cc1cccc(-c2nccc(Nc3ccnc(Nc4ccc(NCC5(O)CNC5)cc4)n3)n2)n1 [Compound 490, 3-[[4-[[4-[[2-(6-methyl-2-pyridyl)pyrimidin-4-yl]amino]pyrimidin-2-yl]amino]anilino]methyl] azetidin-3-ol]
[1]
  Ki: 0.0398 to 0.316 nM
[2]
  IC50: 25.1 to 158 nM

## COC(=O)CC1CN(c2ccc(Nc3nccc(Nc4ccnc(-c5cccc(C)n5)n4)n3)cc2)CCN1 (stereo not shown) [Compound 491, methyl 2-[4-[4-[[4-[[2-(6-methyl-2-pyridyl)pyrimidin-4-yl]amino]pyrimidin-2-yl]amino]phenyl]piperazin-2-yl]acetate]
[1]
  Ki: 0.0398 to 0.316 nM
[2]
  IC50: 25.1 to 158 nM

## Cc1cccc(-c2nccc(Nc3ccnc(Nc4ccc5c(c4)CCCN5)n3)n2)n1 [Compound 492, N4-[2-(6-methyl-2-pyridyl)pyrimidin-4-yl]-N2-(1,2,3,4-tetrahydroquinolin-6-yl)pyrimidine-2,4-diamine]
[1]
  Ki: 0.398 to 3.16 nM
[2]
  IC50: 25.1 to 158 nM

## COC1(C)CN(Cc2ccc(Nc3nccc(Nc4ccnc(-c5cccc(C)n5)n4)n3)cc2)C1 [Compound 493, N2-[4-[(3-methoxy-3-methyl-azetidin-1-yl)methyl]phenyl]-N4-[2-(6-methyl-2-pyridyl)pyrimidin-4-yl]pyrimidine-2,4-diamine]
[1]
  Ki: 0.0398 to 0.316 nM
[2]
  IC50: 25.1 to 158 nM

## Cc1cccc(-c2nccc(Nc3ccnc(Nc4ccc(N5CCN(CC(C)C)CC5)cc4)n3)n2)n1 [Compound 494, N2-[4-(4-isobutylpiperazin-1-yl)phenyl]-N4-[2-(6-methyl-2-pyridyl)pyrimidin-4-yl]pyrimidine-2,4-diamine]
[1]
  Ki: 0.0398 to 0.316 nM
[2]
  IC50: 25.1 to 158 nM

## Cc1cccc(-c2nccc(Nc3ccnc(Nc4ccc(CN5CCCC(C(=O)NCC6CNC6)C5)cc4)n3)n2)n1 (stereo not shown) [Compound 495, N-(azetidin-3-ylmethyl)-1-[[4-[[4-[[2-(6-methyl-2-pyridyl)pyrimidin-4-yl]amino]pyrimidin-2-yl]amino]phenyl]methyl] piperidine-3-carboxamide]
[1]
  Ki: 0.0398 to 0.316 nM
[2]
  IC50: 25.1 to 158 nM

## Cc1cccc(-c2nccc(Nc3ccnc(Nc4ccc(N(C)C5CNC5)cc4)n3)n2)n1 [Compound 496, N2-[4-[azetidin-3-yl(methyl)amino]phenyl]-N4-[2-(6-methyl-2-pyridyl)pyrimidin-4-yl]pyrimidine-2,4-diamine]
[1]
  Ki: 0.0398 to 0.316 nM
[2]
  IC50: 25.1 to 158 nM

## Cc1cccc(-c2nccc(Nc3ccnc(Nc4cccc(N(C)C(=O)C5CCNCC5)c4)n3)n2)n1 [Compound 497, N-methyl-N-[3-[[4-[[2-(6-methyl-2-pyridyl)pyrimidin-4-yl]amino]pyrimidin-2-yl]amino]phenyl]piperidine-4-carboxamide]
[1]
  Ki: 0.0398 to 0.316 nM
[2]
  IC50: 200 to 1260 nM

## Cc1cccc(-c2nc(CC(=O)NCCO)cc(Nc3ccnc(Nc4ccc(N5CCNCC5)cc4)n3)n2)n1 [Compound 498, N-(2-hydroxyethyl)-2-[2-(6-methyl-2-pyridyl)-6-[[2-(4-piperazin-1-ylanilino)pyrimidin-4-yl]amino]pyrimidin-4-yl]acetamide]
[1]
  Ki: 0.398 to 3.16 nM
[2]
  IC50: 200 to 1260 nM

## Cc1cccc(-c2nccc(Nc3ccnc(Nc4ccc(N5CCNCC5)c(CC(=O)O[C@@H]5CCN(C)C5)c4)n3)n2)n1 [Compound 499, [(3R)-1-methylpyrrolidin-3-yl] 2-[5-[[4-[[2-(6-methyl-2-pyridyl)pyrimidin-4-yl]amino]pyrimidin-2-yl]amino]-2-piperazin-1-yl-phenyl]acetate]
[1]
  Ki: 0.0398 to 0.316 nM
[2]
  IC50: 200 to 1260 nM

## Cc1cccc(-c2nccc(Nc3ccnc(Nc4csc(N)c4)n3)n2)n1 [Compound 500, N2-(5-amino-3-thienyl)-N4-[2-(6-methyl-2-pyridyl)pyrimidin-4-yl]pyrimidine-2,4-diamine]
[1]
  Ki: 0.398 to 3.16 nM
[2]
  IC50: 25.1 to 158 nM

## Cc1cccc(-c2nccc(Nc3ccnc(Nc4ccc(CN5CC(N(C)C)C5)cc4)n3)n2)n1 [Compound 501, N2-[4-[[3-(dimethylamino)azetidin-1-yl]methyl]phenyl]-N4-[2-(6-methyl-2-pyridyl)pyrimidin-4-yl]pyrimidine-2,4-diamine]
[1]
  Ki: 0.0398 to 0.316 nM
[2]
  IC50: 25.1 to 158 nM

## Cc1cccc(-c2nccc(Nc3ccnc(Nc4ccc(N5CCOCC5)cc4F)n3)n2)n1 [Compound 502, N2-(2-fluoro-4-morpholino-phenyl)-N4-[2-(6-methyl-2-pyridyl)pyrimidin-4-yl]pyrimidine-2,4-diamine]
[1]
  Ki: 3.98 to 31.6 nM
[2]
  IC50: 25.1 to 158 nM

## CNCc1ccc(Nc2nccc(Nc3ccnc(-c4cccc(C)n4)n3)n2)cc1 [Compound 503, N2-[4-(methylaminomethyl)phenyl]-N4-[2-(6-methyl-2-pyridyl)pyrimidin-4-yl]pyrimidine-2,4-diamine]
[1]
  Ki: ≤ 0.0316 nM
[2]
  IC50: 25.1 to 158 nM

## Cc1cccc(-c2nccc(Nc3ccnc(Nc4csc(C(=O)O[C@@H]5CCN(C)C5)c4)n3)n2)n1 [Compound 504, [(3R)-1-methylpyrrolidin-3-yl] 4-[[4-[[2-(6-methyl-2-pyridyl)pyrimidin-4-yl]amino]pyrimidin-2-yl]amino]thiophene-2-carboxylate]
[1]
  Ki: 0.0398 to 0.316 nM
[2]
  IC50: 25.1 to 158 nM

## Cc1cccc(-c2nccc(Nc3ccnc(Nc4cccc(C(=O)N5CCNCC5)c4)n3)n2)n1 [Compound 505, [3-[[4-[[2-(6-methyl-2-pyridyl)pyrimidin-4-yl]amino]pyrimidin-2-yl]amino]phenyl]-piperazin-1-yl-methanone]
[1]
  Ki: 0.398 to 3.16 nM
[2]
  IC50: 25.1 to 158 nM
